Patent publication US8088808B2, “Substituted N-phenyl-bipyrrolidine carboxamides and therapeutic use thereof” (Sanofi, priority 2007, dated 2012)
Counter-ions that a name gives are not always drawn.

Columns and labels:
MCH receptor = MCH receptor (Homo sapiens, UniProt Q99705); assay: MCH receptor [125J]-ligand binding filtration assay; details: 10 μM test compound; percent inhibition of ligand binding
Protocol: The activity of the compounds of this invention at the MCH receptor site, if any was measured by the procedures as set forth below. • Test Compounds The compounds of this invention were stored in a 96-well microtiter plates (1 μL, 10 mM, 100% DMSO). Each of the test sample was diluted with 249 μL of 100% DMSO (dilution 1:250). […] Blank: Assay buffer containing 0.4% DMSO were transferred to the dilution microtiter plates for blanks • Assay Procedure: The filter plates with […] of 0.5% PEI-solution/well were incubated for 2 hours at room temperature. PEI was removed by vacuum filtration just before pipetting (Univac Polyfiltronic/Whatman). The solution of the compound as prepared above (50 μL), or MCH ([…]) or Puffer/DMSO (positive control) were added to 96-well round bottom microtiter plate. Then 50 μl of [^125J]-ligand solution was added followed by 100 μl of membrane suspension. The plates were closed with the lids, and incubated for 60 min. at 25° C. The samples were transferred to GF/B filter plate. The reaction mixture was removed by vacuum filtration, washed 4× with 300 μL ice-cold washing buffer and the washing solution was removed by vacuum filtration. The rubber layer at the bottom of the plate was then removed and the filters were dried over night at room temperature. 25 μL of scintillation cocktail was added and the plates were sealed and, plate frames were added and incubated for 1 hour at room temperature. The radioactivity was then measured, settings ^125J standard, 30 sec./well.

[1] = target: rhesus (Macaca Mulatta) H3 receptor (Macaca mulatta, UniProt Q865E1); assay: Rhesus H3 radioligand binding assay ([3H]-Methylhistamine displacement, WGA SPA beads); set-up: species or system rhesus monkey (Macaca Mulatta); details: Table 2; procedure of Example 42
Protocol: (Genbank #AY231164). Stably transfected cultures were amplified in tissue culture flasks by standard tissue culture methods and induced to express rhesus H3 by exposure to 500 ng/ml tetracycline (Cellgro) for 24 hours. After induction, cells were dissociated from flasks utilizing Cell Stripper (Cellgro). Cells were centrifuged (1K×g, 5 min) and pellet frozen in an ethanol-dry ice bath to disrupt cell membranes. Frozen cell pellet was re-suspended in 5 mM HEPES (pH 7.4, Invitrogen) at 10 ml/1000 cm2 of harvested cells. The cell suspension was drawn through an 18 gauge needle (2-3×) followed by a 23 gauge needle (2-3×) to further disrupt cell membranes. The cell suspension was centrifuged (40K×g, 30 min). Cell membrane pellet was re-suspended in 5 mM HEPES (pH 7.4, Invitrogen) at a final protein concentration of 10 mg/ml. Rhesus H3 membranes were stored under liquid nitrogen prior to use in [3H]-Methylhistamine and GTPγS radioligand binding assays.
Rhesus H3 radioligand binding assay was performed using rhesus H3 receptor membranes (prepared as described above), [3H]-Methylhistamine (Perkin Elmer) and WGA SPA beads (wheat germ agglutinin scintillation proximity assay) beads (Amersham). The assay was performed in 96-well Opti-Plates (Packard). Each reaction contained 50 μl rhesus H3 membranes (20-30 μg total protein), 50 μl WGA SPA beads (0.1 μg) and 50 μl of 83 Ci/mmol [^3H]-Methylhistamine (final concentration 2 nM) and 50 μl of tested compound. The compounds of this invention and/or vehicle were diluted with binding buffer from 10 mM DMSO stocks. Assay plates were sealed with TopSeal (Perkin Elmer) and mixed on shaker (25° C., 1 hour). Assay plates were read on TopCount scintillation counter (Packard). Results were analyzed by Hill transformation and Ki values were determined by Cheng-Prusoff equation.

rhesus (Macaca Mulatta) H3 receptor, sequence (Q865E1 1-445): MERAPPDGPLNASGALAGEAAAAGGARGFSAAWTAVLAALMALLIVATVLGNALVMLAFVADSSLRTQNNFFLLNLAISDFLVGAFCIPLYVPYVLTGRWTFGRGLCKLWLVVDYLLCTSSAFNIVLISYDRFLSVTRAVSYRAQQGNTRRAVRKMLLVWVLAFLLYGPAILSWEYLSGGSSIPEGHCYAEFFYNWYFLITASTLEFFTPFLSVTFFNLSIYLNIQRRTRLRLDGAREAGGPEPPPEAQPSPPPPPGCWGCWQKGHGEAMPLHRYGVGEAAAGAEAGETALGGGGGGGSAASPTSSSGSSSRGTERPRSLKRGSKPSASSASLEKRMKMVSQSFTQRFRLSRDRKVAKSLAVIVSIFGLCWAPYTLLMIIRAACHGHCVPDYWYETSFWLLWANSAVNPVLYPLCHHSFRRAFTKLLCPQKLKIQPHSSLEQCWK
MCH receptor, sequence (Q99705 whole entry): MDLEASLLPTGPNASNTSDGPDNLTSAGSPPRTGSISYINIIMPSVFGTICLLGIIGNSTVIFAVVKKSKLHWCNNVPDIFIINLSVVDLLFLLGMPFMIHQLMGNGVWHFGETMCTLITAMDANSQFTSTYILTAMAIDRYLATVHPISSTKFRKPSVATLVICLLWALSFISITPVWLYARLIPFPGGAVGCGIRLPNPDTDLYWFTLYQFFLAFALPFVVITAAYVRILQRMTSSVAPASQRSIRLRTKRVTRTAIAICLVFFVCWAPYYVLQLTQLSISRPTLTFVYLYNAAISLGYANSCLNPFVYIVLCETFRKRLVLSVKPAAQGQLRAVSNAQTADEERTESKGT

SMILES | inhibition at 10 µM (MCH receptor) [%] | Ki [1] [µM]
Cc1cc(N2CCC(N3CCCC3C)C2)ccc1NC(=O)C1C[C@@H]2CC[C@H]1C2 (stereo partly drawn) [Example 12, (1S,4R)-Bicyclo[2.2.1]heptane-2-carboxylic acid [2-methyl-4-(2-methyl-[1,3′]bipyrrolidinyl-1′-yl)-phenyl]-amide trifluoro-acetate] | -2.8 | 0.0199
Cc1cc(N2CCC(N3CCCC3C)C2)ccc1NC(=O)c1ccc(-n2ccccc2=O)o1 (stereo not drawn) [Example 32, 5-(2-Oxo-2H-pyridin-1-yl)-furan-2-carboxylic acid [2-methyl-4-(2-methyl-[1,3]bipyrrolidinyl-1′-yl)-phenyl]-amide] | 10.9 | 0.0333
CC1CCCN1C1CCN(c2ccc(NC(=O)C3CC3)c(C(F)(F)F)c2)C1 (stereo not drawn) [Example 30, Cyclopropanecarboxylic acid [4-(2-methyl-[1,3′]bipyrrolidinyl-1′-yl)-2-trifluoromethyl-phenyl]-amide trifluoroacetate] | 1.2 | 0.0147
Cc1cc(C(=O)Nc2ccc(N3CCC(N4CCCC4C)C3)cc2)n[nH]1 (stereo not drawn) [Example 31, 5-Methyl-1H-pyrazole-3-carboxylic acid [4-(2-methyl-[1,3′]bipyrrolidinyl-1′-yl)-phenyl]-amide trifluoroacetate] | 30.5 | 0.0445
Cc1cc(N2CC[C@H](N3CCC[C@@H]3C)C2)ccc1NC(=O)c1ccco1 [Example 19, Furan-2-carboxylic acid [2-methyl-4-(2(S)-methyl-[1,3′(S)]bipyrrolidinyl-1′-yl)-phenyl]-amide trifluoroacetate] | 6 | 0.0039
Cc1cc(N2CCC(N3CCCC3C)C2)ccc1NC(=O)CC1CCCC1 (stereo not drawn) [Example 8, 2-Cyclopentyl-N-[2-methyl-4-(2-methyl-[1,3′]bipyrrolidinyl-1′-yl)-phenyl]-acetamide trifluoro-acetate] | 1.4 | 0.0084

Other lines, results leading:

inhibition at 10 µM (MCH receptor) [%] | Ki [1] [µM] | SMILES
10.3 | 0.0108 | Cc1cc(N2CC[C@H](N3CCC[C@@H]3C)C2)ccc1NC(=O)c1cc(C)n(C)n1 [Example 15, 1,5-Dimethyl-1H-pyrazole-3-carboxylic acid [2-methyl-4-(2(2S)-methyl-[1,3′(3′S)]bipyrrolidinyl-1′-yl)-phenyl]-amide hydrochloride]
3.7 | 0.0107 | Cc1cc(NC(=O)CC2CCCC2)ccc1N1CCC(N2CCCC2C)C1 (stereo not drawn) [Example 38, 2-Cyclopentyl-N-[3-methyl-4-(2-methyl-[1,3′]bipyrrolidinyl-1′-yl)-phenyl]-acetamide trifluoroacetate]
5 | 0.0032 | Cc1cc(NC(=O)c2c(C)noc2C)ccc1N1CCC(N2CCCC2C)C1 (stereo not drawn) [Example 7, 3,5-Dimethyl-isoxazole-4-carboxylic acid [3-methyl-4-(2-methyl-[1,3′]bipyrrolidinyl-1′-yl)-phenyl]-amide trifluoro-acetate]
-3.4 | 0.0097 | CC1CCCN1C1CCN(c2ccc(NC(=O)C3CC3)cc2)C1 (stereo not drawn) [Example 40, Cyclopropanecarboxylic acid [4-(2-methyl-[1,3′]bipyrrolidinyl-1′-yl)-phenyl]-amide trifluoroacetate]
-2.8 | 0.0087 | CC1CCCN1C1CCN(c2ccc(NC(=O)C3CCOCC3)cc2)C1 (stereo not drawn) [Example 9, Tetrahydro-pyran-4-carboxylic acid [4-(2-methyl-[1,3′]bipyrrolidinyl-1′-yl)-phenyl]-amide trifluoro-acetate]
-2 | 0.0026 | Cc1cc(N2CCC(N3CCCC3C)C2)ccc1NC(=O)c1c(C)noc1C (stereo not drawn) [Example 18, 3,5-Dimethyl-isoxazole-4-carboxylic acid [2-methyl-4-(2-methyl-[1,3′]bipyrrolidinyl-1′-yl)-phenyl]-amide trifluoroacetate]
